Experimental data: patent US20090005406A1, “Cancer Treatment Method” (SMITHKLINE BEECHAM CORPORATION, priority 2005, published 2009)
Marks after values point to notes of the source that are not given here.

Experiments:
[1] = Peak plasma concentration of pazopanib in the clinical study; type: in vivo; details: oral dosing, regardless of tumor type
Protocol: (§1) Sixty-three patients (pts) with cancer were treated with pazopanib three times a week, once (qd) or twice (bid) daily in a dose escalation scheme. The amount and frequency of administration of pazopanib to a representative number of those pts is summarized below in Table 1. Pts were evaluated monthly and treated until disease progression or intolerable side effects. Clinical response was determined every 8 wks. Safety and pharmacodynamics were separately assessed.
(§2) Preliminary representative patient data are shown below in Table 2.

Solid Tumors = assay: Clinical study of orally administered pazopanib in patients with solid tumors (clinical response); type: in vivo; design: key to Response: SD stable disease;; MR mixed response;; PR partial remission
Protocol: as §1, §2

[2] = patient with Adeno lung, 200-800 mg qd, oral
[3] = patient with Chondrosarcoma, 400-800 mg qd, oral
[4] = patient with Chondrosarcoma, 2000-800 mg qd, oral
[5] = patient with GIST, 600-800 mg qd, oral
[6] = patient with Hurthle Cell tumor, 50-800 mg qd, oral
[7] = patient with Leiomyosarcoma, 50-800 mg qd, oral
[8] = patient with Melanoma, 50-400 mg qd, oral
[9] = patient with Neuroendocrine tumor, 300 mg bid, oral
[10] = patient with Rectal carcinoid, 800 mg qd, oral
[11] = patient with Renal cell carcinoma, 800 mg qd, oral, patient withdrawn from study
[12] = patient with Renal cell carcinoma, 2000 mg qd, oral
[13] = patient with Renal cell carcinoma, 1400-800 mg qd, oral

In the case of Cc1ccc(Nc2nccc(N(C)c3ccc4c(C)n(C)nc4c3)n2)cc1S(N)(=O)=O [pazopanib, 5-({4-[(2,3-dimethyl-2H-indazol-6-yl)(methyl)amino]pyrimidin-2-yl}amino)-2-methylbenzenesulfonamide], the “peak plasma concentrations of pazopanib in patients that demonstrated a clinical benefit” value [1] is reported as ≥ 40 µM, the “Duration on pazopanib (weeks)” value (Solid Tumors; [2]) is reported as 55 weeks and the Response (Solid Tumors; [2]) is reported as “SD”. For the same compound, the “Duration on pazopanib (weeks)” value (Solid Tumors; [3]) was 31 weeks, the Response (Solid Tumors; [3]) was “SD” and the “Duration on pazopanib (weeks)” value (Solid Tumors; [4]) was 90+ weeks. For the same compound, the Response (Solid Tumors; [4]) was “SD (MR)”, the “Duration on pazopanib (weeks)” value (Solid Tumors; [5]) was 60 weeks and the Response (Solid Tumors; [5]) was “SD”. For the same compound, the “Duration on pazopanib (weeks)” value (Solid Tumors; [6]) was 101 weeks, the Response (Solid Tumors; [6]) was “SD (MR)” and the “Duration on pazopanib (weeks)” value (Solid Tumors; [7]) was 34 weeks. The Response (Solid Tumors; [7]) was “SD”, the “Duration on pazopanib (weeks)” value (Solid Tumors; [8]) was 36 weeks and the Response (Solid Tumors; [8]) was “SD”. For the same compound, the “Duration on pazopanib (weeks)” value (Solid Tumors; [9]) was 50+ weeks, the Response (Solid Tumors; [9]) was “MR” and the “Duration on pazopanib (weeks)” value (Solid Tumors; patient with Neuroendocrine tumor, 1000 mg qd, oral) was 38 weeks. The Response (Solid Tumors; patient with Neuroendocrine tumor, 1000 mg qd, oral, preliminary data not yet confirmed) was “PR^#”, the “Duration on pazopanib (weeks)” value (Solid Tumors; [10]) was 40+ weeks and the Response (Solid Tumors; [10]) was “SD”. For the same compound, the Response (Solid Tumors; patient with Renal cell carcinoma, 300 mg bid, oral (40+ weeks patient)) was “MR”, the Response (Solid Tumors; patient with Renal cell carcinoma, 300 mg bid, oral (52+ weeks patient)) was “PR” and the “Duration on pazopanib (weeks)” value (Solid Tumors; patient with Renal cell carcinoma, 300 mg bid, oral, response MR) was 40+ weeks. The “Duration on pazopanib (weeks)” value (Solid Tumors; patient with Renal cell carcinoma, 300 mg bid, oral, response PR) was 52+ weeks, the Response (Solid Tumors; patient with Renal cell carcinoma, 800 mg qd, oral (12+ weeks patient)) was “SD” and the “Duration on pazopanib (weeks)” value (Solid Tumors; [11]) was 19 weeks. The Response (Solid Tumors; [11]) was “SD (MR)*”, the “Duration on pazopanib (weeks)” value (Solid Tumors; patient with Renal cell carcinoma, 800 mg qd, oral, response SD) was 12+ weeks and the “Duration on pazopanib (weeks)” value (Solid Tumors; [12]) was 24 weeks. The Response (Solid Tumors; [12]) was “SD (MR)”, the “Duration on pazopanib (weeks)” value (Solid Tumors; [13]) was 40 weeks and the Response (Solid Tumors; [13]) was “SD (MR)”.
